Data reported in US11149011B2, “Compounds and methods for IDO and TDO modulation, and indications therefor” (Plexxikon Inc., priority 2018, dated 2021).

Assays:
[1] = biological target: T1, TDO-expressing HEK293 cell clones (Homo sapiens, UniProt P48775); test: Cell based kynurenine assay, TDO-expressing HEK293 cell clones; conditions: HEK293 cells, 24 hours of incubation, geometric mean; read-out: HEK293 TDO Kynurenine GMean IC50 (μM) (Cellular Assay)
T1 construct: expressed in transfected cells; host or cells: HEK293
T1 sequence (P48775 whole entry): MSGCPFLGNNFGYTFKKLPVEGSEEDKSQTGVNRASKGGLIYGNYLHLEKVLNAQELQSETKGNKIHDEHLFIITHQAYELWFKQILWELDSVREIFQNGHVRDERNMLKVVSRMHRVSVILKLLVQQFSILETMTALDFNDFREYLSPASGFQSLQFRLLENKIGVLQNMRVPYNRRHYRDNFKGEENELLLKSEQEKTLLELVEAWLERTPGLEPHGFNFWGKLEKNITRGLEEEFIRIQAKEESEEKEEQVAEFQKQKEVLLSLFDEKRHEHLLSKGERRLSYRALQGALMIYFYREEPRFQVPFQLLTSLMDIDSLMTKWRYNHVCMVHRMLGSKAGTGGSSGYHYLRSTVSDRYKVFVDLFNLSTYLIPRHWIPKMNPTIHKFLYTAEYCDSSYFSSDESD
Summary of the method: (§1)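 IC50s come from nonlinear regression of % inhibition of kynurenine in culture supernatant after 24 hours of compound exposure. Controls were 0.2% DMSO-treated cells and media alone. Cells were stable human IDO1- or TDO-expressing HEK293 clones (CMV promoter), plated at 2.5×10^4 per well.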

[2] = biological target: T2, IDO1-expressing HEK293 cell clones (Homo sapiens, UniProt P14902); test: Cell based kynurenine assay, IDO1-expressing HEK293 cell clones; conditions: HEK293 cells, 24 hours of incubation, geometric mean; read-out: HEK293 IDO1 Kynurenine GMean IC50 (μM) (Cellular Assay)
T2 construct: expressed in transfected cells; host or cells: HEK293
T2 sequence (P14902 whole entry): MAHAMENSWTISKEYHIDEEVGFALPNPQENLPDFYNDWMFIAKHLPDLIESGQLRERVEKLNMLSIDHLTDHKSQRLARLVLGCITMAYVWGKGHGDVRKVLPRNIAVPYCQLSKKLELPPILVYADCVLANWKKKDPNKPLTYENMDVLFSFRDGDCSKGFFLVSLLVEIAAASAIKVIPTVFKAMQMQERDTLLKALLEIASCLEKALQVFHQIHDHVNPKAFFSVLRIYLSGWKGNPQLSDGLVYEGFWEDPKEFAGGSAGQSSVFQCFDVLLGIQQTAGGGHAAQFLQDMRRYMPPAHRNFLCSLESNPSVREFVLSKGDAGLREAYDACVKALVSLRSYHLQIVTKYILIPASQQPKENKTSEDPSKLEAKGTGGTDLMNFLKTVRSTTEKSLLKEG
Summary of the method: as §1

TDO = biological target: T3, TDO (Homo sapiens, UniProt P48775); test: TDO enzymatic assay; conditions: geometric mean; read-out: TDO GMean: IC50 (μM) (Biochemical Assay)
T3 construct: His tag (N); made in house; host or cells: E. coli
T3 sequence (P48775 whole entry): as the sequence (P48775 whole entry) above
Summary of the method: (§2)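 Kynurenine formed after TCA hydrolysis (30 min, 50 °C) was quantified relative to full-reaction and no-enzyme controls, and IC50s were fitted. TDO reactions used 1 nM enzyme with 350 μM Trp and 0.4 μM methylene blue for 70 min; IDO reactions used 6 nM enzyme, 10 μM Trp, 5 μM methylene blue for 20 min; both at pH 6.5, room temperature.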

IDO1 = biological target: T4, IDO1 (Homo sapiens, UniProt P14902); test: IDO enzymatic assay; type: biochemical; conditions: geometric mean; read-out: IDO1 GMean: IC50 (μM) (Biochemical Assay)
T4 construct: His tag (N); made in house; host or cells: E. coli
T4 sequence (P14902 whole entry): as the sequence (P14902 whole entry) above
Summary of the method: as §2

Row | Compound | IC50 [1] | IC50 [2] | IC50 (TDO) | IC50 (IDO1)
1 | CC(C)(C1CCN(C(=O)NC2CCOCC2)CC1)C(O)c1cc(Cl)cc2[nH]ncc12 (centres unmarked) [Compound P-0079, 4-(1-(6-chloro-1H-indazol-4-yl)-1-hydroxy-2-methylpropan-2-yl)-N-(tetrahydro-2H-pyran-4-yl)piperidine-1-carboxamide] | 0.0001 to 10 µM | 0.0001 to 10 µM | 0.0001 to 10 µM | 0.0001 to 10 µM
2 | CC(C)(C1CCN(C(=O)NCC2CC2)CC1)C(O)c1cc(Cl)cc2[nH]ncc12 (centres unmarked) [Compound P-0080, 4-(1-(6-chloro-1H-indazol-4-yl)-1-hydroxy-2-methylpropan-2-yl)-N-(cyclopropylmethyl)piperidine-1-carboxamide] | 0.0001 to 10 µM | 0.0001 to 10 µM | 0.0001 to 10 µM | 0.0001 to 10 µM
3 | CC(C)(C1CCN(C(=O)NC2CC2)CC1)C(O)c1cc(Cl)cc2[nH]ncc12 (centres unmarked) [Compound P-0081, 4-(1-(6-chloro-1H-indazol-4-yl)-1-hydroxy-2-methylpropan-2-yl)-N-cyclopropylpiperidine-1-carboxamide] | 0.0001 to 10 µM | 0.0001 to 10 µM | 0.0001 to 10 µM | 0.0001 to 10 µM
4 | CC(C)(C1CCN(C(=O)Nc2ccc(F)cc2F)CC1)C(O)c1cc(Cl)cc2[nH]ncc12 (centres unmarked) [Compound P-0082, 4-(1-(6-chloro-1H-indazol-4-yl)-1-hydroxy-2-methylpropan-2-yl)-N-(2,4-difluorophenyl)piperidine-1-carboxamide] | 0.0001 to 10 µM | > 10 µM | 0.0001 to 10 µM | 0.0001 to 10 µM
5 | COCCNC(=O)N1CCC(C(C)(C)C(O)c2cc(Cl)cc3[nH]ncc23)CC1 (centres unmarked) [Compound P-0083, 4-(1-(6-chloro-1H-indazol-4-yl)-1-hydroxy-2-methylpropan-2-yl)-N-(2-methoxyethyl)piperidine-1-carboxamide] | 0.0001 to 10 µM | 0.0001 to 10 µM | 0.0001 to 10 µM | 0.0001 to 10 µM
6 | CC(C)(C1CCN(C(=O)NCC(F)(F)F)CC1)C(O)c1cc(Cl)cc2[nH]ncc12 (centres unmarked) [Compound P-0084, 4-(1-(6-chloro-1H-indazol-4-yl)-1-hydroxy-2-methylpropan-2-yl)-N-(2,2,2-trifluoroethyl)piperidine-1-carboxamide] | 0.0001 to 10 µM | 0.0001 to 10 µM | 0.0001 to 10 µM | 0.0001 to 10 µM
7 | CC(C)(C1CCN(C(=O)NCCS(C)(=O)=O)CC1)C(O)c1cc(Cl)cc2[nH]ncc12 (centres unmarked) [Compound P-0085, 4-(1-(6-chloro-1H-indazol-4-yl)-1-hydroxy-2-methylpropan-2-yl)-N-(2-(methylsulfonyl)ethyl)piperidine-1-carboxamide] | 0.0001 to 10 µM | > 10 µM | 0.0001 to 10 µM | 0.0001 to 10 µM
8 | CC(C)(C1CCN(C(=O)NCCC(F)(F)F)CC1)C(O)c1cc(Cl)cc2[nH]ncc12 (centres unmarked) [Compound P-0086, 4-(1-(6-chloro-1H-indazol-4-yl)-1-hydroxy-2-methylpropan-2-yl)-N-(3,3,3-trifluoropropyl)piperidine-1-carboxamide] | 0.0001 to 10 µM | 0.0001 to 10 µM | 0.0001 to 10 µM | 0.0001 to 10 µM
9 | CC(C)(C1CCN(C(=O)NCC#N)CC1)C(O)c1cc(Cl)cc2[nH]ncc12 (centres unmarked) [Compound P-0087, 4-(1-(6-chloro-1H-indazol-4-yl)-1-hydroxy-2-methylpropan-2-yl)-N-(cyanomethyl)piperidine-1-carboxamide] | 0.0001 to 10 µM | > 10 µM | 0.0001 to 10 µM | 0.0001 to 10 µM
10 | C#CCNC(=O)N1CCC(C(C)(C)C(O)c2cc(Cl)cc3[nH]ncc23)CC1 (centres unmarked) [Compound P-0088, 4-(1-(6-chloro-1H-indazol-4-yl)-1-hydroxy-2-methylpropan-2-yl)-N-(prop-2-yn-1-yl)piperidine-1-carboxamide] | 0.0001 to 10 µM | > 10 µM | 0.0001 to 10 µM | 0.0001 to 10 µM
11 | CNC(=O)CNC(=O)N1CCC(C(C)(C)C(O)c2cc(Cl)cc3[nH]ncc23)CC1 (centres unmarked) [Compound P-0089, 4-(1-(6-chloro-1H-indazol-4-yl)-1-hydroxy-2-methylpropan-2-yl)-N-(2-(methylamino)-2-oxoethyl)piperidine-1-carboxamide] | 0.0001 to 10 µM | 0.0001 to 10 µM | 0.0001 to 10 µM | 0.0001 to 10 µM
